Like-named read-outs stand apart in the source and are kept apart here.
Key:
KRAS G12C = KRAS G12C (Homo sapiens, UniProt P01116, G12C); assay: GDP-GTP exchange assay (KRAS_G12C exchange assay); format: biochemical; conditions: bodipy-loaded KRAS G12C 2.5 nM, SOS1 150 nM, 2 hours pre-incubation with inhibitor; read-out: G12C_exchange
Method: The inhibitor potency of the exemplified compounds was determined in a fluorescence based guanine nucleotide exchange assay, which measures the exchange of bodipy-GDP (fluorescently labeled GDP) for GppNHp (Non-hydrolyzable GTP analog) to generate the active state of KRAS in the presence of SOS1 (guanine nucleotide exchange factor). Inhibitors were serially diluted in DMSO and a volume of 0.1 μL was transferred to the wells of a black low volume 384-well plate. 5 μL/well volume of bodipy-loaded KRAS G12C diluted to 5 nM in assay buffer (25 mM Hepes pH 7.5, 50 mM NaCl, 10 mM MgCl2 and 0.01% Brij-35) was added to the plate and pre-incubated with inhibitor for 2 hours at ambient temperature. Appropriate controls (enzyme with no inhibitor or with a G12C inhibitor (AMG-510)) were included on the plate. The exchange was initiated by the addition of a 5 μL/well volume containing 1 mM GppNHp and 300 nM SOS1 in assay buffer. The 10 μL/well reaction concentration of the bodipy-loaded KRAS G12C, GppNHp, and SOS1 were 2.5 nM, 500 uM, and 150 nM, respectively. The reaction plates were incubated at ambient temperature for 2 hours, a time estimated for complete GDP-GTP exchange in the absence of inhibitor. For the KRAS G12D and G12V mutants, similar guanine nucleotide exchange assays were used with 2.5 nM as final concentration for the bodipy loaded KRAS proteins and with 4 hours and 3 hours incubation after adding GppNHp-SOS1 mixture for G12D and G12V respectively. A cyclic peptide described to selectively bind G12D mutant (Sakamoto et al., BBRC 484.3 (2017), 605-611) or internal compounds with confirmed binding were used as positive controls in the assay plates. Fluorescence intensities were measured on a PheraStar plate reader instrument (BMG Labtech) with excitation at 485 nm and emission at 520 nm.
Either GraphPad prism or Genedata Screener SmartFit was used to analyze the data. The IC50 values were derived by fitting the data to a four parameter logistic equation producing a sigmoidal dose-response curve with a variable Hill coefficient.

KRAS_G12C pERK = assay: Cellular pERK HTRF assay (KRAS_G12C pERK assay); format: cell-based, human; conditions: KRAS G12C cells, 4 hours incubation with compound, read-out: G12C_pERK
Method: MIA PaCa-2 (KRAS G12C; ATCC® CRL-1420), NCI-H358 (KRAS G12C; ATCC® CRL-5807), A427 (KRAS G12D; ATCC® HTB53), HPAFII (KRAS G12D; ATCC® CRL-1997), YAPC (KRAS G12V; DSMZ ACC382), SW480 (KRAS G12V; ATCC® CRL-228) and NCI-H838 (KRAS WT; ATCC® CRL-5844) cells are purchased from ATCC and maintained in RPMI 1640 media supplemented with 10% FBS (Gibco/Life Technologies). The cells are plated at 5000 cells per well (8 uL) into Greiner 384-well low volume, flat-bottom, and tissue culture treated white plates and incubated overnight at […], 5% CO2. The next morning, test compound stock solutions are diluted in media at 3× the final concentration and 4 uL are added to the cells, with a final concentration of 0.1% of DMSO. The cells are incubated with the test compounds for 4 hours (G12C and G12V) or 2 hrs (G12D) at 37° C., 5% CO2. Four uL of 4× lysis buffer with blocking reagent (Cisbio) are added to each well and plates are rotated gently (300 rpm) for 30 minutes at room temperature. Four uL per well of Cisbio anti Phospho-ERK 1/2 d2 is mixed with anti Phospho-ERK 1/2 Cryptate (1:1), and added to each well, incubated overnight in the dark at room temperature. Plates are read on the Pherastar plate reader at 665 nm and 620 nm wavelengths. Data are analyzed in Genedata Screener using SmartFit for IC50 values.

[1] = test system: KRAS_G12C pERK in MIA PaCa-2 cells; assay: Whole Blood pERK1/2 HTRF assay (KRAS_G12C WB pERK assay); format: cell-based, human; conditions: Homo sapiens, compound in whole blood, 4 hours, read-out: G12C_WB_pERK
Method: MIA PaCa-2 cells (KRAS G12C; ATCC® CRL-1420), HPAF-II (KRAS G12D; ATCC® CRL-1997) and YAPC (KRAS G12V; DSMZ ACC382) are maintained in RPMI 1640 with 10% FBS (Gibco/Life Technologies). For MIA PaCa-2 assay, cells are seeded into 96 well tissue culture plates (Corning #3596) at 25000 cells per well in 100 uL media and cultured for 2 days at 37° C., 5% CO2 before the assay. For HPAF-II and YAPC assay, cells are seeded in 96 well tissue culture plates at 50000 cells per well in 100 uL media and cultured for 1 day before the assay. Whole Blood are added to the 1 uL dots of compounds (prepared in DMSO) in 96 well plates and mixed gently by pipetting up and down so that the concentration of the compound in blood is 1× of desired concentration, in 0.5% DMSO. The media is aspirated from the cells and 50 uL per well of whole blood with test compound is added and incubated for 4 hours for MIA PaCa and YAPC assay; or 2 hours for HPAF-II assay, respectively at 37° C., 5% CO2. After dumping the blood, the plates are gently washed twice by adding PBS to the side of the wells and dumping the PBS from the plate onto a paper towel, tapping the plate to drain well. Fifty ul/well of 1× lysis buffer #1 (Cisbio) with blocking reagent (Cisbio) and Benzonase nuclease (Sigma Cat #E1014-5KU, 1:10000 final concentration) is then added and incubated at room temperature for 30 minutes with shaking (250 rpm). Following lysis, 16 uL of lysate is transferred into 384-well Greiner small volume white plate using an Assist Plus (Integra Biosciences, NH). Four uL of 1:1 mixture of anti Phospho-ERK 1/2 d2 and anti Phospho-ERK 1/2 Cryptate (Cisbio) is added to the wells using the Assist Plus and incubated at room temperature overnight in the dark. Plates are read on the Pherastar plate reader at 665 nm and 620 nm wavelengths. Data are analyzed in Genedata Screener using SmartFit for IC50 values.

KRAS G12C, sequence (P01116 1-188 isoform P01116-2 G12C): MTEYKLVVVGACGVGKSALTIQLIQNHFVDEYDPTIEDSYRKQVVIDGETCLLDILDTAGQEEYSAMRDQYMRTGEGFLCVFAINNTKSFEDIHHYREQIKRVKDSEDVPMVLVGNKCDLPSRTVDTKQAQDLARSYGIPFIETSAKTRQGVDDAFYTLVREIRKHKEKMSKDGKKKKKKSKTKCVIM

Row | SMILES | IC50 (KRAS G12C) [nM] | IC50 (KRAS_G12C pERK) [nM] | IC50 (KRAS_G12C pERK; Homo sapiens, 4 h) [nM] | IC50 [1] [nM]
1 | CN(C)C1(C)CN(c2nc3c(F)c(-c4ccc(F)c5cccnc45)c(C(F)(F)F)cc3c3c2nnn3[C@H]2CCN(C(=O)/C=C/CF)[C@H](CC#N)C2)C1 (single isomer, unassigned) [Example 1b] | ≤ 50 | 50 to 100 |  | 
2 | COc1c(C)cccc1-c1c(C(F)(F)F)cc2c(nc(N3CC(C)(N(C)C)C3)c3nnn([C@H]4CCN(C(=O)/C=C/CF)[C@H](CC#N)C4)c32)c1F (single isomer, unassigned) [Example 2b] | ≤ 50 | 50 to 100 |  | 
3 | COc1c(Cl)cccc1-c1c(C(F)(F)F)cc2c(nc(N3CC(C)(N(C)C)C3)c3nnn([C@H]4CCN(C(=O)/C=C/CF)[C@H](CC#N)C4)c32)c1F (single isomer, unassigned) [Example 3b] | ≤ 50 | ≤ 50 |  | 
4 | C[C@H](Oc1nc2c(F)c(-c3ccc(F)c4cccnc34)c(C(F)(F)F)cc2c2c1nnn2[C@H]1CCN(C(=O)/C=C/CF)[C@H](CC#N)C1)[C@@H]1CCCN1C (single isomer, unassigned) [Example 4b] | ≤ 50 | ≤ 50 |  | 
5 | C=CC(=O)N1CCC(n2nnc3c(O[C@@H](C)[C@@H]4CCCN4C)nc4c(F)c(-c5ccc(F)c6cccnc56)c(C(F)(F)F)cc4c32)CC1 (single isomer, unassigned) [Example 5b] | ≤ 50 | 50 to 100 |  | 
6 | C=CC(=O)N1CCC(n2nnc3c(O[C@@H](C)[C@@H]4CCCN4C)nc4c(F)c(-c5cccc6cccc(C#N)c56)c(C)cc4c32)CC1 (single isomer, unassigned) [Example 11a] | ≤ 50 |  | 100 to 1000 | 
7 | C=CC(=O)N1CC[C@H](n2nnc3c(O[C@@H](C)[C@@H]4CCCN4C)nc4c(F)c(-c5cccc6cccc(C#N)c56)c(C)cc4c32)C[C@H]1C (single isomer, unassigned) [Example 14a] | 50 to 100 |  |  | 
8 | C=C(F)C(=O)N1CC[C@H](n2nnc3c(N4CC(N(C)CC)C4)nc4c(F)c(-c5c(C)c(C)cc6[nH]ncc56)c(C)cc4c32)C[C@H]1CC#N (single isomer, unassigned) [Example 15b] | 100 to 1000 |  |  | 
9 | Cc1cc2c(nc(O[C@@H](C)[C@@H]3CCCN3C)c3nnn(C4CCN(C(=O)/C=C/CF)CC4)c32)c(F)c1-c1cccc2cccc(C#N)c12 (single isomer, unassigned) [Example 16a] | ≤ 50 |  | 100 to 1000 | 
10 | C=C(F)C(=O)N1CC[C@H](n2nnc3c(N4CC(C)(N(C)C)C4)nc4c(F)c(-c5cccc6cccc(C#N)c56)c(C)cc4c32)C[C@H]1CC#N (single isomer, unassigned) [Example 17a] | ≤ 50 |  | ≤ 50 | 50 to 100
11 | C=C(F)C(=O)N1CC[C@H](n2nnc3c(N4CC(C)(N(C)C)C4)nc4c(F)c(-c5cccc6cccc(C#N)c56)c(C)cc4c32)C[C@H]1CC#N (single isomer, unassigned) [Example 17b] | 100 to 1000 |  |  | 
12 | COC/C=C/C(=O)N1CC[C@H](n2nnc3c(N4CC(C)(N(C)C)C4)nc4c(Cl)c(-c5ccc(F)c6cccnc56)c(Cl)cc4c32)C[C@H]1CC#N (single isomer, unassigned) [Example 18b] | ≤ 50 | 100 to 1000 |  | 
13 | CN(C)C1(C)CN(c2nc3c(Cl)c(-c4ccc(F)c5cccnc45)c(Cl)cc3c3c2nnn3[C@H]2CCN(C(=O)/C=C/CF)[C@H](CC#N)C2)C1 (single isomer, unassigned) [Example 19b] | ≤ 50 | ≤ 50 |  | 

Second part, the compound after the results:

Row | IC50 (KRAS G12C) [nM] | IC50 (KRAS_G12C pERK) [nM] | IC50 (KRAS_G12C pERK; Homo sapiens, 4 h) [nM] | IC50 [1] [nM] | SMILES
14 | 50 to 100 |  |  |  | C=C(F)C(=O)N1CC[C@H](n2nnc3c(O[C@@H](C)[C@@H]4CCCN4C)nc4c(F)c(-c5c(C)ncc6ccccc56)c(C)cc4c32)C[C@H]1CC#N (single isomer, unassigned) [Example 23a]
15 | ≤ 50 |  | ≤ 50 | ≤ 50 | C=C(F)C(=O)N1CC[C@H](n2nnc3c(O[C@@H](C)[C@@H]4CCCN4C)nc4c(F)c(-c5c(C)ncc6ccccc56)c(C)cc4c32)C[C@H]1CC#N (single isomer, unassigned) [Example 23b]
16 | ≤ 50 |  | 50 to 100 |  | COC/C=C/C(=O)N1CC[C@H](n2nnc3c(O[C@@H](C)[C@@H]4CCCN4C)nc4c(F)c(-c5c(C)ncc6ccccc56)c(C)cc4c32)C[C@H]1CC#N (single isomer, unassigned) [Example 24a]
17 | ≤ 50 | ≤ 50 |  |  | C=C(F)C(=O)N1CC[C@H](n2nnc3c(O[C@@H](C)[C@@H]4CCCN4C)nc4c(F)c(-c5c(F)ccc6ccc(C)nc56)c(C)cc4c32)C[C@H]1CC#N (single isomer, unassigned) [Example 25b]
18 | 100 to 1000 |  |  |  | C=CC(=O)N1CC[C@H](n2nnc3c(O[C@@H](C)[C@@H]4CCCN4C)nc4c(F)c(-c5cccc6c5c(CC#N)nn6C)c(C)cc4c32)C[C@H]1C (single isomer, unassigned) [Example 28a]
19 | 100 to 1000 |  |  |  | C=CC(=O)N1CC[C@H](n2nnc3c(O[C@@H](C)[C@@H]4CCCN4C)nc4c(F)c(-c5cccc6c5c(CC#N)cn6C)c(C)cc4c32)C[C@H]1C (single isomer, unassigned) [Example 31a]
20 | 50 to 100 |  |  |  | C=CC(=O)N1CCC(n2nnc3c(O[C@@H](C)[C@@H]4CCCN4C)nc4c(F)c(-c5cccc6c5c(CC#N)cn6C)c(C)cc4c32)CC1 (single isomer, unassigned) [Example 32a]
21 | 100 to 1000 |  |  |  | C=C(F)C(=O)N1CC[C@H](n2nnc3c(N4CC(C)(N(C)CC)C4)nc4c(F)c(-c5c(C)c(C)cc6[nH]ncc56)c(Cl)cc4c32)C[C@H]1CC#N (single isomer, unassigned) [Example 33b]
22 | ≤ 50 |  | ≤ 50 |  | COC/C=C/C(=O)N1CC[C@H](n2nnc3c(O[C@@H](C)[C@@H]4CCCN4C)nc4c(F)c(-c5c(F)cccc5OC)c(C)cc4c32)C[C@H]1CC#N (single isomer, unassigned) [Example 34a]
23 | 100 to 1000 |  |  |  | C=C(F)C(=O)N1CC[C@H](n2nnc3c(N4CC(C)(N(C)CC)C4)nc4c(F)c(-c5c(C)c(F)cc6[nH]ncc56)c(Cl)cc4c32)C[C@H]1CC#N (single isomer, unassigned) [Example 35b]
